Data as given in patent publication US9302999B2, “Substituted triazoles as herbicides” (E. I. DU PONT DE NEMOURS AND COMPANY, priority 2012, dated 2016).

How the values were obtained:
Assay type in all cases: in vivo
[1] = test system: rice (Oryza sativa); experiment: Test C flooded paddy test: rice; settings: scale 0 to 100 (0 no effect, 100 complete control)
Outline: (§1)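 Rating: visual, 0–100 (100 = complete control), versus untreated controls after 13 to 15 greenhouse days. Treatment went into paddy water held at 3 cm over the soil, on plants grown to two leaves.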

[2] = test system: pigweed (Amaranthus retroflexus); experiment: Test A pre-/postemergence: pigweed; settings: for Pigweed plant response rating: Postemergence; for Plant response rating, Pigweed: Preemergence
Outline: (§2)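 Injury was scored visually on a 0 (no effect) to 100 (complete control) scale versus untreated controls roughly ten days after treatment in the greenhouse. Compounds, formulated in surfactant-containing non-phytotoxic solvent, went on as soil-directed preemergence spray or postemergence to one- to two-leaf plants 2–10 cm tall.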

[3] = test system: foxtail, giant (giant foxtail, Setaria faberii); experiment: Test A pre-/postemergence: foxtail, giant; settings: for Foxtail, Giant plant response rating: Postemergence; for Plant response rating, Foxtail, Giant: Preemergence
Outline: as §2

[4] = test system: barnyardgrass (Echinochloa crus-galli); experiment: Test C flooded paddy test: barnyardgrass; settings: scale 0 to 100 (0 no effect, 100 complete control)
Outline: as §1

[5] = test system: barnyardgrass (Echinochloa crus-galli); experiment: Test A pre-/postemergence: barnyardgrass; settings: for Barnyardgrass plant response rating: Postemergence; for Plant response rating, Barnyardgrass: Preemergence
Outline: as §2

[6] = test system: wheat (Triticum aestivum); experiment: Test A pre-/postemergence: wheat; settings: for Wheat plant response rating: Postemergence; for Plant response rating, Wheat: Preemergence
Outline: as §2

[7] = test system: ducksalad (Heteranthera limosa); experiment: Test C flooded paddy test: ducksalad; settings: scale 0 to 100 (0 no effect, 100 complete control)
Outline: as §1

[8] = test system: morningglory (Ipomoea spp.); experiment: Test A pre-/postemergence: morningglory; settings: for Morningglory plant response rating: Postemergence; for Plant response rating, Morningglory: Preemergence
Outline: as §2

[9] = test system: sedge, umbrella (small-flower umbrella sedge, Cyperus difformis); experiment: Test C flooded paddy test: sedge, umbrella; settings: scale 0 to 100 (0 no effect, 100 complete control)
Outline: as §1

[10] = test system: corn (Zea mays); experiment: Test A pre-/postemergence: corn; settings: for Corn plant response rating: Postemergence; for Plant response rating, Corn: Preemergence
Outline: as §2

[11] = test system: velvetleaf (Abutilon theophrasti); experiment: Test A pre-/postemergence: velvetleaf; settings: for Velvetleaf plant response rating: Postemergence; for Plant response rating, Velvetleaf: Preemergence
Outline: as §2

[12] = test system: crabgrass, large (large crabgrass, Digitaria sanguinalis); experiment: Test A pre-/postemergence: crabgrass, large; settings: for Crabgrass, Large plant response rating: Postemergence; for Plant response rating, Crabgrass, Large: Preemergence
Outline: as §2

[13] = Flood (flooded paddy test), 62 g ai/ha, visual rating after 13 to 15 days
[14] = Flood (flooded paddy test), 125 g ai/ha, visual rating after 13 to 15 days
[15] = Flood (flooded paddy test), 250 g ai/ha, visual rating after 13 to 15 days
[16] = 125 g ai/ha, 0 to 100 scale, 0 is no effect, 100 is complete control
[17] = 500 g ai/ha, visual rating on 0 to 100 scale (0 no effect, 100 complete control), approximately ten days
[18] = 125 g ai/ha, 0 to 100 scale (0 no effect, 100 complete control)
[19] = 500 g ai/ha, 0 to 100 scale, 0 is no effect, 100 is complete control

Structure (SMILES): Cc1nn(-c2ccccn2)nc1C(=O)c1cccc(C(F)(F)F)c1 [Compound 60]
- Plant response rating, Rice [1, 13]: 0
- Plant response rating, Rice [1, 14]: 0
- Plant response rating, Rice [1, 15]: 0
- Plant response rating, Rice ([1]; Flood, 31 g ai/ha): 0
- Pigweed plant response rating [2, 16]: 0
- Pigweed plant response rating [2, 17]: 10
- Plant response rating, Pigweed [2, 18]: 0
- Plant response rating, Pigweed [2, 19]: 0
- Foxtail, Giant plant response rating [3, 16]: 0
- Foxtail, Giant plant response rating [3, 17]: 0
- Plant response rating, Foxtail, Giant [3, 18]: 0
- Plant response rating, Foxtail, Giant [3, 19]: 0
- Plant response rating, Barnyardgrass [4, 13]: 0
- Plant response rating, Barnyardgrass [4, 14]: 0
- Plant response rating, Barnyardgrass [4, 15]: 0
- Plant response rating, Barnyardgrass ([4]; Flood, 31 g ai/ha): 0
- Barnyardgrass plant response rating [5, 16]: 0
- Barnyardgrass plant response rating [5, 17]: 10
- Plant response rating, Barnyardgrass [5, 18]: 0
- Plant response rating, Barnyardgrass [5, 19]: 0
- Wheat plant response rating [6, 16]: 0
- Wheat plant response rating [6, 17]: 0
- Plant response rating, Wheat [6, 18]: 0
- Plant response rating, Wheat [6, 19]: 0
- Plant response rating, Ducksalad [7, 13]: 0
- Plant response rating, Ducksalad [7, 14]: 0
- Plant response rating, Ducksalad [7, 15]: 0
- Plant response rating, Ducksalad ([7]; Flood, 31 g ai/ha): 0
- Morningglory plant response rating [8, 16]: 0
- Morningglory plant response rating [8, 17]: 0
- Plant response rating, Morningglory [8, 18]: 0
- Plant response rating, Morningglory [8, 19]: 0
- Plant response rating, Sedge, Umbrella [9, 13]: 0
- Plant response rating, Sedge, Umbrella [9, 14]: 0
- Plant response rating, Sedge, Umbrella [9, 15]: 0
- Plant response rating, Sedge, Umbrella ([9]; Flood, 31 g ai/ha): 0
- Corn plant response rating [10, 16]: 0
- Corn plant response rating [10, 17]: 10
- Plant response rating, Corn [10, 18]: 0
- Plant response rating, Corn [10, 19]: 0
- Velvetleaf plant response rating [11, 16]: 0
- Velvetleaf plant response rating [11, 17]: 0
- Plant response rating, Velvetleaf [11, 18]: 0
- Plant response rating, Velvetleaf [11, 19]: 0
- Crabgrass, Large plant response rating [12, 16]: 0
- Crabgrass, Large plant response rating [12, 17]: 10
- Plant response rating, Crabgrass, Large [12, 18]: 0
- Plant response rating, Crabgrass, Large [12, 19]: 0

Structure (SMILES): Cc1nn(-c2cccc(C(F)(F)F)c2)nc1Oc1cc(C(F)(F)F)nn1C [Compound 64]
- Plant response rating, Rice [1, 13]: 0
- Plant response rating, Rice [1, 14]: 0
- Plant response rating, Rice [1, 15]: 0
- Plant response rating, Rice ([1]; Flood, 31 g ai/ha): 0
- Pigweed plant response rating [2, 16]: 0
- Pigweed plant response rating [2, 17]: 0
- Plant response rating, Pigweed [2, 18]: 0
- Plant response rating, Pigweed [2, 19]: 0
- Foxtail, Giant plant response rating [3, 16]: 0
- Foxtail, Giant plant response rating [3, 17]: 0
- Plant response rating, Foxtail, Giant [3, 18]: 0
- Plant response rating, Foxtail, Giant [3, 19]: 0
- Plant response rating, Barnyardgrass [4, 13]: 0
- Plant response rating, Barnyardgrass [4, 14]: 0
- Plant response rating, Barnyardgrass [4, 15]: 0
- Plant response rating, Barnyardgrass ([4]; Flood, 31 g ai/ha): 0
- Barnyardgrass plant response rating [5, 16]: 0
- Barnyardgrass plant response rating [5, 17]: 0
- Plant response rating, Barnyardgrass [5, 18]: 0
- Plant response rating, Barnyardgrass [5, 19]: 0
- Wheat plant response rating [6, 16]: 0
- Wheat plant response rating [6, 17]: 0
- Plant response rating, Wheat [6, 18]: 0
- Plant response rating, Wheat [6, 19]: 0
- Plant response rating, Ducksalad [7, 13]: 0
- Plant response rating, Ducksalad [7, 14]: 0
- Plant response rating, Ducksalad [7, 15]: 0
- Plant response rating, Ducksalad ([7]; Flood, 31 g ai/ha): 0
- Morningglory plant response rating [8, 16]: 0
- Morningglory plant response rating [8, 17]: 0
- Plant response rating, Morningglory [8, 18]: 0
- Plant response rating, Morningglory [8, 19]: 0
- Plant response rating, Sedge, Umbrella [9, 13]: 0
- Plant response rating, Sedge, Umbrella [9, 14]: 0
- Plant response rating, Sedge, Umbrella [9, 15]: 0
- Plant response rating, Sedge, Umbrella ([9]; Flood, 31 g ai/ha): 0
- Corn plant response rating [10, 16]: 0
- Corn plant response rating [10, 17]: 0
- Plant response rating, Corn [10, 18]: 0
- Plant response rating, Corn [10, 19]: 0
- Velvetleaf plant response rating [11, 16]: 0
- Velvetleaf plant response rating [11, 17]: 0
- Plant response rating, Velvetleaf [11, 18]: 0
- Plant response rating, Velvetleaf [11, 19]: 0
- Crabgrass, Large plant response rating [12, 16]: 0
- Crabgrass, Large plant response rating [12, 17]: 0
- Plant response rating, Crabgrass, Large [12, 18]: 0
- Plant response rating, Crabgrass, Large [12, 19]: 0
